Test results: the supplement of paper PMC11208160

Assay: recombinant barcode read abundance after kanamycin selection (control-corrected) (log10(CPM+1)); higher = more efficient recombination; sequences stand for … in AGTGCAGAGAAAATCGGCCAGTTTTCTCTGCCTGCAGTCCGCATGCCGT…AGATTTATGCAGCGGACTGCCTTTCTCCCAAAGTGATAAACCGGACAGTATCATGGACCGGTTTTCCCGGTAATCCGTATTTGCAAGGTTGGTTTCACT; site = the 11-nt target
How it was run: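 Recombination efficiency was calculated from barcode counts at recombinant junctions, normalized to counts per million, averaged and corrected by the control. Each value is given as log10(CPM+1). The constructs were Gibson-cloned oligos (promoter, target, barcode, J23119-driven first 104 bridge RNA bases) in a vector with the remaining 73 bp and a T7-inducible recombinase, co-electroporated into E. coli with a donor plasmid and plated in duplicate on chloramphenicol/ampicillin LB agar (control) or chloramphenicol/ampicillin/kanamycin with 0.1 mM IPTG.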
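Also: IS621 recombinase and bridge RNA in Escherichia coli cells.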

Sequence	recombinant barcode read abundance (log10)
TCCCGAACTTGGGTTCTAACCTGTTGCCT (site TCCCGAACTAG)	0.598
TCCCGAACTTGGGTTCTAACCTGTTGCCT (site TCCCGACCTAG)	0.337
TCCCGAACTTGGGTTCTAACCTGTTGCCT (site TCCCGAGCTAG)	0.173
TCCCGAACTTGGGTTCTAACCTGTTGCCT (site TCCCGATCTAG)	0.0125
TCCCGTCCTTGGGTTCTAACCTGTTGCCT (site TCCCGTCCTAG)	0.636
TCCCGTCCTTGGGTTCTAACCTGTTGCCT (site TCCCTTCCTAG)	0.196
TCCGACACTTGGGTTCTAACCTGTTGCCT (site TACGACACTAG)	0.227
TCCGACACTTGGGTTCTAACCTGTTGCCT (site TCCGACACTAG)	1.95
TCCGAGACTTGGGTTCTAACCTGTTGCGT (site TCCGAGACTAC)	1.56
TCCGAGACTTGGGTTCTAACCTGTTGCGT (site TTCGAAACTAC)	0.226
TCCGAGCCTTGGGTTCTAACCTGTTGCGT (site TCCGAGCCTAC)	2.18
TCCGAGCCTTGGGTTCTAACCTGTTGCGT (site TCCGAGCCTAT)	1.03
TCCGAGGCTTGGGTTCTAACCTGTTGCTG (site TCAGAGGCTCA)	0.266
TCCGAGGCTTGGGTTCTAACCTGTTGCTG (site TCCGAGGCTCA)	0.739
TCCGAGGCTTGGGTTCTAACCTGTTGCTG (site TCGGAGGCTCA)	0.521
TCCGAGGCTTGGGTTCTAACCTGTTGCTG (site TCTGAGGCTCA)	0.241
TCCGATACTTGGGTTCTAACCTGTTGCGT (site GTGTGGCCTTG)	0.11
TCCGATACTTGGGTTCTAACCTGTTGCGT (site TCCGATACTAC)	1.64
TCCGGCGCTTGGGTTCTAACCTGTTGCGG (site CTTACTACTTG)	0.0112
TCCGGCGCTTGGGTTCTAACCTGTTGCGG (site TCCGGCGCTCC)	1.75
TCCGTATCTTGGGTTCTAACCTGTTGCAG (site GAGTGGCCTTC)	0.16
TCCGTATCTTGGGTTCTAACCTGTTGCAG (site TCCGTATCTCT)	1.05

Sequence	recombinant barcode read abundance (log10)
TCCGTCCCTTGGGTTCTAACCTGTTGCAT (site TCCGACCCTGT)	0.0832
TCCGTCCCTTGGGTTCTAACCTGTTGCAT (site TCCGTCCCTAT)	1.4
TCCGTGACTTGGGTTCTAACCTGTTGCCT (site TCCGTGACTAG)	2.07
TCCGTGACTTGGGTTCTAACCTGTTGCCT (site TCCGTGCCTAG)	0
TCCGTGACTTGGGTTCTAACCTGTTGCCT (site TCCGTGGCTAG)	0.436
TCCGTGACTTGGGTTCTAACCTGTTGCCT (site TCCGTGTCTAG)	0.352
TCCTAACCTTGGGTTCTAACCTGTTGCTG (site ACCTAACCTCT)	0.0586
TCCTAACCTTGGGTTCTAACCTGTTGCTG (site TCCTAACCTCA)	1.37
TCCTAATCTTGGGTTCTAACCTGTTGCAT (site TCCTAACCTAG)	0.0364
TCCTAATCTTGGGTTCTAACCTGTTGCAT (site TCCTAATCTAT)	0.607
TCCTACCCTTGGGTTCTAACCTGTTGCCT (site TACTACCCTAG)	0.0977
TCCTACCCTTGGGTTCTAACCTGTTGCCT (site TCCTACCCTAG)	1.36
TCCTACCCTTGGGTTCTAACCTGTTGCCT (site TGCTACCCTAG)	0.052
TCCTACCCTTGGGTTCTAACCTGTTGCCT (site TTCTACCCTAG)	0.271
TCCTACTCTTGGGTTCTAACCTGTTGCCG (site TCCGACTCTCG)	0.0792
TCCTACTCTTGGGTTCTAACCTGTTGCCG (site TCCTACTCTCG)	0.688
TCCTAGACTTGGGTTCTAACCTGTTGCGG (site TCCTAGACTCC)	1.53
TCCTAGACTTGGGTTCTAACCTGTTGCGG (site TTCTAGACTCC)	0.117
TCCTAGGCTTGGGTTCTAACCTGTTGCGC (site TCCTAGGCTGC)	1.72
TCCTAGGCTTGGGTTCTAACCTGTTGCGC (site TCTTAGGCTAC)	0.161
TCCTATGCTTGGGTTCTAACCTGTTGCTA (site CAAGTGACTAG)	0.0648
TCCTATGCTTGGGTTCTAACCTGTTGCTA (site TCCTATGCTTA)	0.0755

Sequence	recombinant barcode read abundance (log10)
TCCTATTCTTGGGTTCTAACCTGTTGCGA (site TACTATGCTTC)	0.141
TCCTATTCTTGGGTTCTAACCTGTTGCGA (site TCCTATTCTTC)	0.544
TCCTGGGCTTGGGTTCTAACCTGTTGCCG (site TCCTGGGCTCG)	0.0509
TCCTGGGCTTGGGTTCTAACCTGTTGCCG (site TTATGGGCTCG)	0.0305
TCCTGTACTTGGGTTCTAACCTGTTGCAT (site TCCAGTACTAT)	0.272
TCCTGTACTTGGGTTCTAACCTGTTGCAT (site TCCCGTACTAT)	0.705
TCCTGTACTTGGGTTCTAACCTGTTGCAT (site TCCGGTACTAT)	0.00868
TCCTGTACTTGGGTTCTAACCTGTTGCAT (site TCCTGTACTAT)	1.01
TCGAACCCTTGGGTTCTAACCTGTTGCGA (site TCGAACCCTTC)	0.927
TCGAACCCTTGGGTTCTAACCTGTTGCGA (site TCGCACCCTTC)	0.0454
TCGAACCCTTGGGTTCTAACCTGTTGCGA (site TCGGACCCTTC)	0.114
TCGAACCCTTGGGTTCTAACCTGTTGCGA (site TCGTACCCTTC)	0.0144
TCGAACCCTTGGGTTCTAACCTGTTGCTT (site GCGAACCCTAA)	0.0343
TCGAACCCTTGGGTTCTAACCTGTTGCTT (site TCGAACCCTAA)	0.258
TCGAAGGCTTGGGTTCTAACCTGTTGCCT (site TCAAAGGCTAG)	0.411
TCGAAGGCTTGGGTTCTAACCTGTTGCCT (site TCCAAGGCTAG)	0.0717
TCGAAGGCTTGGGTTCTAACCTGTTGCCT (site TCGAAGGCTAG)	0.382
TCGAAGGCTTGGGTTCTAACCTGTTGCCT (site TCTAAGGCTAG)	0.0236
TCGAATCCTTGGGTTCTAACCTGTTGCCT (site TCGAAACCTAG)	0.0251
TCGAATCCTTGGGTTCTAACCTGTTGCCT (site TCGAACCCTAG)	0.0582
TCGAATCCTTGGGTTCTAACCTGTTGCCT (site TCGAAGCCTAG)	0.0385
TCGAATCCTTGGGTTCTAACCTGTTGCCT (site TCGAATCCTAG)	0.173
